Measurements taken from patent US20110112100A1, “Hepatitis C Virus Inhibitors” (priority 2009, published 2011).
Counter-ions that a name gives are not always drawn. Like-named read-outs stand apart in the source and are kept apart here.

Key:
[1] = tested on: 1a-H77 replicon cells; assay: HCV 1a replicon inhibitory activity (Renilla luciferase); format: cell-based, hepatitis C virus; details: read-out: IC50 value (95% Confidence Intervals) pM Replicon 1A assay
Procedure, shortened: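 Replicon cells in DMEM + 10% FCS incubated 48 hours at 37° C., 5% CO2 with 1-in-3 serial dilutions of compound prepared in DMSO. Replication read as Renilla luciferase luminescence after lysis. EC50 taken from log concentration-response curves.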

[2] = tested on: 1b (con1) replicon cells; assay: HCV 1b replicon inhibitory activity (luciferase, Britelite Plus); format: cell-based, hepatitis C virus; details: read-out: IC50 value (95% Confidence Intervals) pM Replicon 1B assay
Procedure, shortened: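 1b (con1) luciferase replicon cells in DMEM + 10% FCS were exposed to 1-in-3 DMSO compound dilutions for 48 h at 37° C, 5% CO2. Luminescence was read 1-15 min after Britelite Plus addition; EC50 came from log concentration-response curves.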

[3] = geometric mean, 95% confidence intervals in parentheses, 48 hours, medium with 10% FCS

COC(=O)N[C@H](C(=O)N1CCC[C@H]1c1nc(-c2ccc(-c3cnc4cc(-c5cnc([C@@H]6CCCN6C(=O)[C@H](NC(=O)OC)C(C)C)[nH]5)ccc4n3)cc2)c[nH]1)C(C)C [Example 61, Methyl {(2S)-1-[(2S)-2-{4-[4-(6-{2-[(2S)-1-{(2R)-2-[(methoxycarbonyl)amino]-3-methylbutanoyl}pyrrolidin-2-yl]-1H-imidazol-5-yl}quinoxalin-2-yl)phenyl]-1H-imidazol-2-yl}pyrrolidin-1-yl]-3-methyl-1-oxobutan-2-yl}carbamate trifluoroacetic acid salt]
IC50 ([1]; Hepatitis C virus, 48 h): 6400 pM | IC50 ([2]; Hepatitis C virus, 48 h): 83.5 pM

COC(=O)N[C@H](C(=O)N1CCC[C@H]1c1nc(-c2ccc(-c3cnc4cc(-c5cnc([C@@H]6CCCN6C(=O)[C@@H](Cc6ccccc6)NC(=O)OC)[nH]5)ccc4n3)cc2)c[nH]1)C(C)C [Example 62, Methyl {(2R)-1-[(2S)-2-{5-[2-(4-{2-[(2S)-1-{(2S)-2-[(methoxycarbonyl)amino]-3-methylbutanoyl}pyrrolidin-2-yl]-1H-imidazol-4-yl}phenyl)quinoxalin-6-yl]-1H-imidazol-2-yl}pyrrolidin-1-yl]-1-oxo-3-phenylpropan-2-yl}carbamate trifluoroacetic acid salt]
IC50 ([1]; Hepatitis C virus, 48 h): 2570 pM | IC50 ([2]; Hepatitis C virus, 48 h): 44.1 pM

COC(=O)N[C@H](C(=O)N1CCC[C@H]1c1nc(-c2ccc(-c3cnc4cc(-c5cnc([C@@H]6CCCN6C(=O)[C@@H](COCc6ccccc6)NC(=O)OC)[nH]5)ccc4n3)cc2)c[nH]1)C(C)C [Example 63, Methyl {(2S)-1-[(2S)-2-{4-[4-(6-{2-[(2S)-1-{(2R)-3-(benzyloxy)-2-[(methoxycarbonyl)amino]propanoyl}pyrrolidin-2-yl]-1H-imidazol-5-yl}quinoxalin-2-yl)phenyl]-1H-imidazol-2-yl}pyrrolidin-1-yl]-3-methyl-1-oxobutan-2-yl}carbamate trifluoroacetic acid salt]
IC50 ([1]; Hepatitis C virus, 48 h): 4770 pM | IC50 ([2]; Hepatitis C virus, 48 h): 400 pM

COC(=O)N[C@@H](CO)C(=O)N1CCC[C@H]1c1ncc(-c2ccc3nc(-c4ccc(-c5c[nH]c([C@@H]6CCCN6C(=O)[C@@H](NC(=O)OC)C(C)C)n5)cc4)cnc3c2)[nH]1 [Example 64, Methyl {(2S)-1-[(2S)-2-{4-[4-(6-{2-[(2S)-1-{(2S)-3-hydroxy-2-[(methoxycarbonyl)amino]propanoyl}pyrrolidin-2-yl]-1H-imidazol-5-yl}quinoxalin-2-yl)phenyl]-1H-imidazol-2-yl}pyrrolidin-1-yl]-3-methyl-1-oxobutan-2-yl}carbamate trifluoroacetic acid salt]
IC50 ([1]; Hepatitis C virus, 48 h): 44.9 pM | IC50 ([2]; Hepatitis C virus, 48 h): 42 pM

COC(=O)NCC(=O)N1CCC[C@H]1c1ncc(-c2ccc3nc(-c4ccc(-c5c[nH]c([C@@H]6CCCN6C(=O)[C@@H](NC(=O)OC)C(C)C)n5)cc4)cnc3c2)[nH]1 [Example 65, Methyl {2-[(2S)-2-[5-[2-(4-{2-[(2S)-1-{(2S)-2-[(methoxycarbonyl)amino]-3-methylbutanoyl}pyrrolidin-2-yl]-1H-imidazol-4-yl}phenyl)quinoxalin-6-yl]-1H-imidazol-2-yl}pyrrolidin-1-yl]-2-oxoethyl)carbamate trifluoroacetic acid salt]
IC50 ([1]; Hepatitis C virus, 48 h): 700 pM | IC50 ([2]; Hepatitis C virus, 48 h): 54.5 pM

COC(=O)NC(C(=O)N1CCC[C@H]1c1ncc(-c2ccc3nc(-c4ccc(-c5c[nH]c([C@@H]6CCCN6C(=O)[C@@H](NC(=O)OC)C(C)C)n5)cc4)cnc3c2)[nH]1)C1CCCC1 (stereo partly drawn) [Example 66, Methyl {(2S)-1-[(2S)-2-{4-[4-(6-{2-[(2S)-1-{cyclopentyl[(methoxycarbonyl)amino]acetyl}pyrrolidin-2-yl]-1H-imidazol-5-yl}quinoxalin-2-yl)phenyl]-1H-imidazol-2-yl}pyrrolidin-1-yl]-3-methyl-1-oxobutan-2-yl} carbamate trifluoroacetic acid salt]
IC50 [1, 3]: 1720 pM | IC50 [2, 3]: 21.7 pM

COC(=O)N[C@@H](CC(C)C)C(=O)N1CCC[C@H]1c1ncc(-c2ccc3nc(-c4ccc(-c5c[nH]c([C@@H]6CCCN6C(=O)[C@@H](NC(=O)OC)C(C)C)n5)cc4)cnc3c2)[nH]1 [Example 68, Methyl {(2S)-1-[(2S)-2-{5-[2-(4-{2-[(2S)-1-{(2S)-2-[(methoxycarobnyl)amino]-3-methylbutanoyl}pyrrolidin-2-yl]-1H-imidazol-4-yl}phenyl)quinoxalin-6-yl]-1H-imidazol-2-yl}pyrrolidin-1-yl]-4-methyl-1-oxopentan-2-yl}carbamate trifluoroacetic acid salt]
IC50 [1, 3]: 23.2 pM | IC50 [2, 3]: 8.15 pM

COC(=O)N[C@H](C(=O)N1CCC[C@H]1c1nc(-c2ccc(-c3cnc4cc(-c5cnc([C@@H]6CCCN6C(=O)[C@H](NC(=O)OC)[C@@H](C)OC(C)(C)C)[nH]5)ccc4n3)cc2)c[nH]1)C(C)C [Example 75, Methyl {(2S)-1-[(2S)-2-{4-[4-(6-{2-[(2S)-1-{(2R,3R)-3-tert-butoxy-2-[(methoxycarbonyl)amino]butanoyl}pyrrolidin-2-yl]-1H-imidazol-5-yl}quinoxalin-2-yl)phenyl]-1H-imidazol-2-yl}pyrrolidin-1-yl]-3-methyl-1-oxobutan-2-yl}carbamate trifluoroacetic acid salt]
IC50 ([1]; Hepatitis C virus, 48 h): 4190 pM | IC50 ([2]; Hepatitis C virus, 48 h): 143 pM

COC(=O)N[C@H](C(=O)N1CCC[C@H]1c1nc(-c2ccc(-c3cnc4cc(-c5cnc([C@@H]6CCCN6C(=O)[C@@H](COC(C)(C)C)NC(=O)OC)[nH]5)ccc4n3)cc2)c[nH]1)C(C)C [Example 76, Methyl {(2S)-1-[(2S)-2-{4-[4-(6-{2-[(2S)-1-{(2R)-3-tert-butoxy-2-[(methoxycarbonyl)amino]propanoyl}pyrrolidin-2-yl]-1H-imidazol-5-yl]quinoxalin-2-yl)phenyl]-1H-imidazol-2-yl}pyrrolidin-1-yl]-3-methyl-1-oxobutan-2-yl}carbamate trifluoroacetic acid salt]
IC50 ([1]; Hepatitis C virus, 48 h): 157 pM | IC50 ([2]; Hepatitis C virus, 48 h): 58.8 pM

CCC[C@@H](NC(=O)OC)C(=O)N1CCC[C@H]1c1ncc(-c2ccc3nc(-c4ccc(-c5c[nH]c([C@@H]6CCCN6C(=O)[C@@H](NC(=O)OC)C(C)C)n5)cc4)cnc3c2)[nH]1 [Example 77, Methyl {(2R)-1-[(2S)-2-{5-[2-(4-{2-[(2S)-1-{(2S)-2-[(methoxycarbonyl)amino]-3-methylbutanoyl}pyrrolidin-2-yl]-1H-imidazol-4-yl}phenyl)quinoxalin-6-yl]-1H-imidazol-2-yl}pyrrolidin-1-yl]-1-oxopentan-2-yl}carbamate trifluoroacetic acid salt]
IC50 ([1]; Hepatitis C virus, 48 h): 186 pM | IC50 ([2]; Hepatitis C virus, 48 h): 31.4 pM

CCCC[C@@H](NC(=O)OC)C(=O)N1CCC[C@H]1c1ncc(-c2ccc3nc(-c4ccc(-c5c[nH]c([C@@H]6CCCN6C(=O)[C@@H](NC(=O)OC)C(C)C)n5)cc4)cnc3c2)[nH]1 [Example 78, Methyl {(2R)-1-[(2S)-2-{5-[2-(4-{2-[(2S)-1-{(2S)-2-[(methoxycarbonyl)amino]-3-methylbutanoyl}pyrrolidin-2-yl]-1H-imidazol-4-yl}phenyl)quinoxalin-6-yl]-1H-imidazol-2-yl}pyrrolidin-1-yl]-1-oxohexan-2-yl}carbamate trifluoroacetic acid salt]
IC50 ([1]; Hepatitis C virus, 48 h): 443 pM | IC50 ([2]; Hepatitis C virus, 48 h): 45.5 pM

COC(=O)N[C@@H](CC1CCCCC1)C(=O)N1CCC[C@H]1c1ncc(-c2ccc3nc(-c4ccc(-c5c[nH]c([C@@H]6CCCN6C(=O)[C@@H](NC(=O)OC)C(C)C)n5)cc4)cnc3c2)[nH]1 [Example 80, Methyl {(2S)-1-[(2S)-2-(4-{4-[6-(2-{(2S)-1-[3-cyclohexyl-N-(methoxycarbonyl)alanyl]pyrrolidin-2-yl}-1H-imidazol-5-yl)quinoxalin-2-yl]phenyl}-1H-imidazol-2-yl)pyrrolidin-1-yl]-3-methyl-1-oxobutan-2-yl} carbamate]
IC50 [1, 3]: 117 pM | IC50 [2, 3]: 11.4 pM

COC(=O)N[C@H](C(=O)N1CCC[C@H]1c1nc(-c2ccc(-c3cnc4cc(-c5cnc([C@@H]6CCCN6C(=O)[C@@H](Cc6c[nH]c7ccccc67)NC(=O)OC)[nH]5)ccc4n3)cc2)c[nH]1)C(C)C [Example 82, Methyl {(2S)-1-[(2S)-2-{4-[4-(6-{2-[(2S)-1-{(2R)-3-(1H-indol-3-yl)-2-[(methoxycarbonyl)amino]propanoyl}pyrrolidin-2-yl]-1H-imidazol-5-yl}quinoxalin-2-yl)phenyl]-1H-imidazol-2-yl}pyrrolidin-1-yl]-3-methyl-1-oxobutan-2-yl}carbamate trifluoroacetic acid salt]
IC50 ([1]; Hepatitis C virus, 48 h): 490 pM | IC50 ([2]; Hepatitis C virus, 48 h): 190 pM

COC(=O)N[C@H](C(=O)N1CCC[C@H]1c1nc(-c2ccc(-c3cnc4cc(-c5cnc([C@@H]6CCCN6C(=O)[C@@H](Cc6ccccn6)NC(=O)OC)[nH]5)ccc4n3)cc2)c[nH]1)C(C)C [Example 83, Methyl {(2S)-1-[(2S)-2-(4-{4-[6-(2-{(2S)-1-[(2R)-2-[(methoxycarbonyl)amino]-3-(pyridin-2-yl)propanoyl]pyrrolidin-2-yl}-1H-imidazol-5-yl)quinoxalin-2-yl]phenyl}-1H-imidazol-2-yl)pyrrolidin-1-yl]-3-methyl-1-oxobutan-2-yl}carbamate trifluoroacetic acid salt]
IC50 ([1]; Hepatitis C virus, 48 h): 1030 pM | IC50 ([2]; Hepatitis C virus, 48 h): 53.4 pM

Methyl {(2S)-1-[(2S)-2-{4-[4-(6-{2-[(2S)- 1-{(2S)-3-tert-butoxy-2-[(methoxy carbonyl)amino]propanoyl}pyrrolidin-2- yl]-1H-imidazol-5-yl}quinoxalin-2-yl) phenyl]-1H-imidazol-2-yl}pyrrolidin-1-yl]- 3-methyl-1-oxobutan-2-yl}carbamate trifluoroacetic acid salt [Example 81]
IC50 [1, 3]: 44 pM | IC50 [2, 3]: 13.7 pM
